Measured values as given in patent US20250171420A1 (Monte Rosa Therapeutics, Inc., priority 2022, published 2025).

How the values were obtained:
[1] = biological target: T1, CK1α (Homo sapiens, UniProt P48729); test: CK1α NanoBit Assay (HiBiT-tagged CSNK1A1, HEK293 clonal lines); format: cell-based; conditions: HEK293 HiBiT-CSNK1A1/LgBiT cells, 24 h incubation
T1 construct: HEK293 clonal lines with CRISPR KI HiBiT tag on CSNK1A1
Method: HEK293 clonal lines with CRISPR KI HiBiT tag on CSNK1A1 and stably expressing LgBiT protein were obtained from Promega (Madison, WI). […] Cells were incubated at 37° C., 5% CO2 for 24 hours and then signal was read on a Pherastar FSX using “LUM plus” optic module.
Data analysis was performed in Scinamic (Scinamic, Cambridge, MA). Luminescence response (R) was calculated by the formula: response=100*(S−N)/(P−N) where S is the signal of the well, N and P the mean negative and positive control values respectively of the same plate.
DC50 data are reported in Table 2 for compounds in Table 1. In Table 2 below, According to the code, A represents a DC50 value of ≤0.1 μM, B represents a DC50 value>0.1 μM and ≤1 μM, C represents an DC50 value>1 μM.

[2] = biological target: CRBN/DDB1 (Homo sapiens, UniProt Q96SW2); test: HTRF binding assay (displacement of Cy5-thalidomide probe from CRBN/DDB1); conditions: CRBN/DDB1 2.5 nM, Cy5-Thalidomide 100 nM, 30 min; geometric mean; read-out: HTRF_Thali_Disp_DR_geo_IC50
Sequence of CRBN/DDB1 (Q96SW2 whole entry, species assumed): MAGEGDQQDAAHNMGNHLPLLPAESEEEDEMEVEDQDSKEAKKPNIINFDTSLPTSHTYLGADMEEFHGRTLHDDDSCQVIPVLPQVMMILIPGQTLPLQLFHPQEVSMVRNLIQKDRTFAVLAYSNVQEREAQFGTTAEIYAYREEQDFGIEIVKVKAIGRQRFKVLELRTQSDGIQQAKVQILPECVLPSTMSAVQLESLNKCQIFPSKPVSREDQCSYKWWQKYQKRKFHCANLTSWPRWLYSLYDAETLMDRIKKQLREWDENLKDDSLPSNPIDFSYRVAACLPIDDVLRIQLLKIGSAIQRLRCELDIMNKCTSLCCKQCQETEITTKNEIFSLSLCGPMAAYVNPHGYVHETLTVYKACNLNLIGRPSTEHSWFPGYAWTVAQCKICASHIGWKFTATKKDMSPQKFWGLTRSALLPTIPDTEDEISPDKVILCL
Sequence of CRBN/DDB1 (Q16531 whole entry partner, species assumed): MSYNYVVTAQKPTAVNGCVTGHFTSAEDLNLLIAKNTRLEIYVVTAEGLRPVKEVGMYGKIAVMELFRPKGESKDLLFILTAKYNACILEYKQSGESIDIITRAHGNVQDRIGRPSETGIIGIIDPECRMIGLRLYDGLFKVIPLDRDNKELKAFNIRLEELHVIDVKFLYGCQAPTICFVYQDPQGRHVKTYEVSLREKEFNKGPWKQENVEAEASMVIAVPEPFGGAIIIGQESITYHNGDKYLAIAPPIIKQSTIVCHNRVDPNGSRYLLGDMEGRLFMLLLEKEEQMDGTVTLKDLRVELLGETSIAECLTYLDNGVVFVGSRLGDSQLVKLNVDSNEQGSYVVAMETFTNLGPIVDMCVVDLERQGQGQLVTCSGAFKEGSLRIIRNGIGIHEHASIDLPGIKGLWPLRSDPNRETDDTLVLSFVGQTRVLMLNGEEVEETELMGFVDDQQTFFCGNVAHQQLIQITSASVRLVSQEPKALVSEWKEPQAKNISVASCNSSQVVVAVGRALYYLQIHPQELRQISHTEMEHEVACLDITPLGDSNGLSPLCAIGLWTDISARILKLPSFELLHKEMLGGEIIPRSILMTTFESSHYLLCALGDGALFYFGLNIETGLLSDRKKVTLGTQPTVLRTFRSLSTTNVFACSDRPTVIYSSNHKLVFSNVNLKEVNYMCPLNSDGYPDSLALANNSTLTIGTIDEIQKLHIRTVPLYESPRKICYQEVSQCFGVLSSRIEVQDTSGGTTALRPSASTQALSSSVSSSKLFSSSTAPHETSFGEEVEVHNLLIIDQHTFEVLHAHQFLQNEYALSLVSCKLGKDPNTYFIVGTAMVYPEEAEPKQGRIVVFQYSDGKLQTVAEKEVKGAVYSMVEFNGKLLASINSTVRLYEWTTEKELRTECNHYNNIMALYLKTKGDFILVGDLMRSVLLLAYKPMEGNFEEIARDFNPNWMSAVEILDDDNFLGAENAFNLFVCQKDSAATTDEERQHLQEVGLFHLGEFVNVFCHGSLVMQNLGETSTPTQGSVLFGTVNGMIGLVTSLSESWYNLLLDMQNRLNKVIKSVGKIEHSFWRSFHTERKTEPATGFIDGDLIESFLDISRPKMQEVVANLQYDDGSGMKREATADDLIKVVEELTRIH
Excerpt: Binding of test compounds to CRBN/DDB1 was monitored in an HTRF assay using 1-[5-({2-[2-(2-{[2-(2,6-dioxopiperidin-3-yl)-1,3-dioxo-2,3-dihydro-1H-isoindol-4-yl]oxy}acetamido)ethoxy]ethyl}carbamoyl)pentyl]-3,3-dimethyl-2-[(1E,3E)-5-[(2E)-1,3,3-trimethyl-5-sulfo-2,3-dihydro-1H-indol-2-ylidene]penta-1,3-dien-1-yl]-3H-indol-1-ium-5-sulfonate as a fluorescent probe. In this assay, compounds displace the fluorescently labeled thalidomide-based probe bound to CRBN and fluorescence is monitored with increasing compound concentration. Assays were conducted in Greiner white 384 well HiBase plates (Cat. No 784075-25) in 10 μL total volume. A one pot detection solution of CRBN/DDB1 (2.5 nM), anti-His Terbium Cryptate Gold (1×, PerkinElmer Cat. #: 61HI2TLB), and Cy5-Thalidomide (100 nM, Tenova Cat.: T52461) was prepared in 20 mM HEPES, 20 mM NaCl, 0.2 mM TCEP, 0.2 mM EDTA, and 0.005% Tween20 was dispensed to each assay plate. Test compounds were stored in dry, ambient temperatures at 10 mM. A 10-point, 1:3 dilution series was prepared from 10 mM stock concentrations in Echo-compatible LDV plates. 10 nL of each compound dilution series was dispensed into assays wells using an Echo 650 (Labcyte inc. USA). 10 nL of 10 mM lenalidomide (Selleckchem Cat no. S1029) was transferred into the active-control wells for the assay and 10 nL of DMSO was transferred into the negative control wells. The assay was then allowed to incubate for 30 min at ambient temperature after transferring the test compounds. Plate measurements were taken on a Pherastar FSX (BMG Labtech, Germany) using the HTRF Red filter (Ex. 337 nm, em1: 620 nm, em2: 665 nm) (Flashes: 50, Integration time: 60-400 μs, Z-height: 10 mm, Ratio-multiplier: 10,000). Analysis, HTRF ratio and IC50 values were derived using KNIME analytics (KNIME Zurich) transformation and fitting within Collaborative Drug Discovery (Collaborative Drug Discovery USA) using a 4-parameter logistic fit. HTRF ratio calculation was performed using the following formula: […]
where Y represents the HTRF ratio response (as defined previously), X the compound concentration in μM, Ymin the minimum response plateau, Ymax the maximum response plateau, IC50 the concentration of agonist that gives a response half way between Ymin and Ymax and HillSlope the steepness of the family of curves. No fitting model constraints was applied on Ymin, or Ymax whilst IC50>0 and −0.5>HillSlope>−3
Ki values were derived from the geometric mean of the IC50 values using the Cheng-Prusoff transformation:
where [L] represents the concentration of fluorescent probe in μM, Kd the affinity (binding constant) of the fluorescent probe in units of μM and IC50 the concentration of agonist that gives a response halfway between Ymin and Ymax (as described in 1.2.1)
Analysis and IC50 values were derived using KNIME analytics (KNIME, Zurich) transformation and fitting within Collaborative Drug Discovery (Collaborative Drug Discovery, USA) as described in 1.2.1. Ki values were derived from the geometric mean of the IC50 values using the Cheng-Prusoff transformation as described in 2.2.2. Data was visualized in GraphPad Prism 8.1.2 (GraphPad, USA) and reported as mean and standard deviation. Microsoft Office Excel 2012 (Redmond, WA) was used for calculation of mean and standard deviation.
IC50 data are reported in Table 3 for compounds in Table 1. In Table 3 below, According to the code, A represents a IC50 value of ≤0.1 μM, B represents a IC50 value>0.1 μM and ≤1 μM, C represents an IC50 value>1 μM.

T1 sequence (P48729 whole entry): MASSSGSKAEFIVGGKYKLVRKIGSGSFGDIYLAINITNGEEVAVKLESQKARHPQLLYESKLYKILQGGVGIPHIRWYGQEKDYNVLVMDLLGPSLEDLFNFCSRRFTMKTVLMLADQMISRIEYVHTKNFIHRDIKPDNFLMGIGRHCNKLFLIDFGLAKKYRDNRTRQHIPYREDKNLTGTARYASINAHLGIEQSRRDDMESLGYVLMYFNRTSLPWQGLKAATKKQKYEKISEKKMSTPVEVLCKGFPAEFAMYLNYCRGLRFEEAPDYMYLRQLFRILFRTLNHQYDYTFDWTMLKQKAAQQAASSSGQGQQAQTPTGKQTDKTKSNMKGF
T1 sequence (Q96SW2 whole entry, further chain): as the sequence (Q96SW2 whole entry, species assumed) above
T1 sequence (Q16531 2-1140 partner limits assumed): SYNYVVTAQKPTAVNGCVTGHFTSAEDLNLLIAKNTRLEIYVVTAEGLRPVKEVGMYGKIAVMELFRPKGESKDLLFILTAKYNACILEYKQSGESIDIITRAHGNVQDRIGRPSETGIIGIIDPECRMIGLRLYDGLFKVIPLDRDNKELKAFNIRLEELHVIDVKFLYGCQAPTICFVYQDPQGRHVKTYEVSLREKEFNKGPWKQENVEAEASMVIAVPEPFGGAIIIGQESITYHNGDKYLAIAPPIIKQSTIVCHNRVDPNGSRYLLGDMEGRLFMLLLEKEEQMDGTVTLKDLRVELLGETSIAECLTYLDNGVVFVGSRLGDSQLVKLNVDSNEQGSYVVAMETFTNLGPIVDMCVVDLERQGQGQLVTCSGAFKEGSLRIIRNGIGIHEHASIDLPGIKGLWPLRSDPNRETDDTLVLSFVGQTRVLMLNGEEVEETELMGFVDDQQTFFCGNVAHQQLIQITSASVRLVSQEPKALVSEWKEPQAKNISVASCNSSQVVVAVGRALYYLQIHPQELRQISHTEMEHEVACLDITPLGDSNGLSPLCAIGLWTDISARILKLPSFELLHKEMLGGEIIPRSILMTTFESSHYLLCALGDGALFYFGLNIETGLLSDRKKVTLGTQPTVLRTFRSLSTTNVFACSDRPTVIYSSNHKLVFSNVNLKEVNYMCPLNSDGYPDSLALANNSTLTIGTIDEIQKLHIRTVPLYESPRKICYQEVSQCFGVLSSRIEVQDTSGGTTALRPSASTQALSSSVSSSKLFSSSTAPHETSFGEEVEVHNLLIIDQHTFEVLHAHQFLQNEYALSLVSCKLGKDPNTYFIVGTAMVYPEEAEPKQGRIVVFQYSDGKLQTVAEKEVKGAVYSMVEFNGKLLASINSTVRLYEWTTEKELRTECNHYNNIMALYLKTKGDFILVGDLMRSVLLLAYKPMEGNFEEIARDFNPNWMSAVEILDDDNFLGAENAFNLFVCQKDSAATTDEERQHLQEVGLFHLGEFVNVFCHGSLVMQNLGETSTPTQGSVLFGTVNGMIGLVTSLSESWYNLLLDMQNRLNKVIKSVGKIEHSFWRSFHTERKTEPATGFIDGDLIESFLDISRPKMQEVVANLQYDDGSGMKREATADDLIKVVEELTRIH

Row | DC50 [1] [µM] | IC50 [2] [nM] | Compound
1 | < 0.1 | 100 to 1000 | O=C1CCC(N2Cc3cc(NC(=O)N4CCc5cc(C6CCOCC6)ccc54)ccc3C2=O)C(=O)N1 (stereo not shown) [Compound 349, N-(2-(2,6-dioxopiperidin-3-yl)-1-oxoisoindolin-5-yl)-5-(tetrahydro-2H-pyran-4-yl)indoline-1-carboxamide]
2 | < 0.1 | 100 to 1000 | O=C1CCC(N2Cc3cc(NC(=O)N4c5ccccc5C[C@H]4COC(F)(F)F)ccc3C2=O)C(=O)N1 (stereo partly drawn) [Compound 311, (2S)—N-(2-(2,6-dioxopiperidin-3-yl)-1-oxoisoindolin-5-yl)-2-((trifluoromethoxy)methyl)indoline-1-carboxamide]
3 | 0.1 to 1 | 100 to 1000 | O=C1CCC(N2Cc3cc(NC(=O)N4CCOc5ccccc54)ccc3C2=O)C(=O)N1 (stereo not shown) [Compound 285, N-(2-(2,6-dioxopiperidin-3-yl)-1-oxoisoindolin-5-yl)-2H-benzo[b][1,4]oxazine-4(3H)-carboxamide]
4 | 0.1 to 1 | 100 to 1000 | CN(C)C(=O)[C@@H]1Cc2ccccc2N1C(=O)Nc1ccc2c(c1)CN(C1CCC(=O)NC1=O)C2=O (stereo partly drawn) [Compound 327, (2S)-N1-(2-(2,6-dioxopiperidin-3-yl)-1-oxoisoindolin-5-yl)-N2,N2-dimethylindoline-1,2-dicarboxamide]
5 | < 0.1 | 100 to 1000 | O=C1CCC(N2Cc3cc(NC(=O)N4Cc5cc(C6CC6)ccc5C45COC5)ccc3C2=O)C(=O)N1 (stereo not shown) [Compound 302, 5-cyclopropyl-N-(2-(2,6-dioxopiperidin-3-yl)-1-oxoisoindolin-5-yl)spiro[isoindoline-1,3′-oxetane]-2-carboxamide]
6 | < 0.1 | < 100 | O=C1CCC(N2Cc3cc(NC(=O)N4CCc5cc(-n6cccn6)ccc54)ccc3C2=O)C(=O)N1 (stereo not shown) [Compound 355]
7 | < 0.1 | 100 to 1000 | COCC1c2cc(C)ccc2CN1C(=O)Nc1ccc2c(c1)CN(C1CCC(=O)NC1=O)C2=O (stereo not shown) [Compound 336, N-(2-(2,6-dioxopiperidin-3-yl)-1-oxoisoindolin-5-yl)-1-(methoxymethyl)-6-methylisoindoline-2-carboxamide]
8 | < 0.1 | 100 to 1000 | CCc1cccc2c1N(C(=O)Nc1ccc3c(c1)CN(C1CCC(=O)NC1=O)C3=O)CC2 (stereo not shown) [Compound 162, N-(2-(2,6-dioxopiperidin-3-yl)-1-oxoisoindolin-5-yl)-7-ethylindoline-1-carboxamide]
9 | 0.1 to 1 | 100 to 1000 | CN1CCN(C(=O)Nc2ccc3c(c2)CN(C2CCC(=O)NC2=O)C3=O)c2ccccc21 (stereo not shown) [Compound 286]
10 | < 0.1 | 100 to 1000 | COCC1c2ccc(C)cc2CN1C(=O)Nc1ccc2c(c1)CN(C1CCC(=O)NC1=O)C2=O (stereo not shown) [Compound 331, N-(2-(2,6-dioxopiperidin-3-yl)-1-oxoisoindolin-5-yl)-1-(methoxymethyl)-5-methylisoindoline-2-carboxamide]
11 | < 0.1 | 100 to 1000 | C[C@@H]1Cc2ccccc2N1C(=O)Nc1ccc2c(c1F)CN(C1CCC(=O)NC1=O)C2=O (stereo partly drawn) [Compound 289, (2R)—N-(2-(2,6-dioxopiperidin-3-yl)-4-fluoro-1-oxoisoindolin-5-yl)-2-methylindoline-1-carboxamide]
12 | 0.1 to 1 | > 1000 | O=C1CCC(N2Cc3cc(NC(=O)N4CCc5cccnc54)ccc3C2=O)C(=O)N1 (stereo not shown) [Compound 112, N-(2-(2,6-dioxopiperidin-3-yl)-1-oxoisoindolin-5-yl)-2,3-dihydro-1H-pyrrolo[2,3-b]pyridine-1-carboxamide]
13 | 0.1 to 1 | 100 to 1000 | CNC[C@@H]1Cc2ccccc2N1C(=O)Nc1ccc2c(c1)CN(C1CCC(=O)NC1=O)C2=O (stereo partly drawn) [Compound 312, (2S)—N-(2-(2,6-dioxopiperidin-3-yl)-1-oxoisoindolin-5-yl)-2-((methylamino)methyl)indoline-1-carboxamide]
14 | < 0.1 | 100 to 1000 | COC[C@@H]1CN(C(=O)Nc2ccc3c(c2)CN(C2CCC(=O)NC2=O)C3=O)c2ccccc21 (stereo partly drawn) [Compound 328, (3S)—N-(2-(2,6-dioxopiperidin-3-yl)-1-oxoisoindolin-5-yl)-3-(methoxymethyl)indoline-1-carboxamide]
15 | < 0.1 | 100 to 1000 | O=C1CCC(N2Cc3cc(NC(=O)N4c5ccccc5C[C@H]4COCC(F)(F)F)ccc3C2=O)C(=O)N1 (stereo partly drawn) [Compound 316, (2S)—N-(2-(2,6-dioxopiperidin-3-yl)-1-oxoisoindolin-5-yl)-2-((2,2,2-trifluoroethoxy)methyl)indoline-1-carboxamide]
16 | < 0.1 | 100 to 1000 | C[C@@H]1Cc2cccc(F)c2N1C(=O)Nc1ccc2c(c1)CN(C1CCC(=O)NC1=O)C2=O (stereo partly drawn) [Compound 350, (2R)—N-(2-(2,6-dioxopiperidin-3-yl)-1-oxoisoindolin-5-yl)-7-fluoro-2-methylindoline-1-carboxamide]
17 | 0.1 to 1 | 100 to 1000 | CN(C)C[C@@H]1Cc2ccccc2N1C(=O)Nc1ccc2c(c1)CN(C1CCC(=O)NC1=O)C2=O (stereo partly drawn) [Compound 323, (2S)-2-((dimethylamino)methyl)-N-(2-(2,6-dioxopiperidin-3-yl)-1-oxoisoindolin-5-yl)indoline-1-carboxamide]
18 | < 0.1 | 100 to 1000 | O=C1CCC(N2Cc3cc(NC(=O)N4CCc5c(C6COC6)cccc54)ccc3C2=O)C(=O)N1 (stereo not shown) [Compound 342, N-(2-(2,6-dioxopiperidin-3-yl)-1-oxoisoindolin-5-yl)-4-(oxetan-3-yl)indoline-1-carboxamide]
19 | 0.1 to 1 | 100 to 1000 | O=C1CCC(N2Cc3cc(NC(=O)N4CCc5cccc(C(F)(F)F)c54)ccc3C2=O)C(=O)N1 (stereo not shown) [Compound 117, N-(2-(2,6-dioxopiperidin-3-yl)-1-oxoisoindolin-5-yl)-7-(trifluoromethyl)indoline-1-carboxamide]
20 | < 0.1 | 100 to 1000 | COCC1c2cc(C3CC3)ccc2CN1C(=O)Nc1ccc2c(c1)CN(C1CCC(=O)NC1=O)C2=O (stereo not shown) [Compound 333, 6-cyclopropyl-N-(2-(2,6-dioxopiperidin-3-yl)-1-oxoisoindolin-5-yl)-1-(methoxymethyl)isoindoline-2-carboxamide]
21 | 0.1 to 1 |  | O=C1CCC(N2Cc3cc(NC(=O)N4C[C@H]5CC4[C@H](c4ccccc4)C5)ccc3C2=O)C(=O)N1 (stereo partly shown) [Compound 230]
22 | 0.1 to 1 |  | O=C1CCC(N2Cc3cc(NC(=O)N4CCCc5c(F)cccc54)ccc3C2=O)C(=O)N1 (stereo not shown) [Compound 131]
23 | < 0.1 |  | CC(C)(C)c1ccc2c(c1)CN(C(=O)Nc1ccc3c(c1)CN(C1CCC(=O)NC1=O)C3=O)CC2 (stereo not shown) [Compound 179]
24 | < 0.1 |  | CC(C)C1c2ccccc2CCN1C(=O)Nc1ccc2c(c1)CN(C1CCC(=O)NC1=O)C2=O (stereo not shown) [Compound 181]
25 | < 0.1 |  | O=C1CCC(N2Cc3cc(NC(=O)N4CC(c5ccc(F)cc5)C4)ccc3C2=O)C(=O)N1 (stereo not shown) [Compound 269]
26 | > 1 |  | O=C1CCC(N2Cc3cc(NC(=O)N4CCC(O)CC4)ccc3C2=O)C(=O)N1 (stereo not shown) [Compound 251]
